target: T1, human Chk1 (GST-Chk1) (Homo sapiens, UniProt O14757); experiment: Chk1 DELFIA kinase assay (2 nM GST-Chk1, 600 μM ATP); type: biochemical; conditions: Biotin-GLYRSPSMPEN-amide substrate
T1 construct: made in house; host or cells: insect cells (baculovirus, Bac-to-Bac)
T1 sequence (O14757 1-476): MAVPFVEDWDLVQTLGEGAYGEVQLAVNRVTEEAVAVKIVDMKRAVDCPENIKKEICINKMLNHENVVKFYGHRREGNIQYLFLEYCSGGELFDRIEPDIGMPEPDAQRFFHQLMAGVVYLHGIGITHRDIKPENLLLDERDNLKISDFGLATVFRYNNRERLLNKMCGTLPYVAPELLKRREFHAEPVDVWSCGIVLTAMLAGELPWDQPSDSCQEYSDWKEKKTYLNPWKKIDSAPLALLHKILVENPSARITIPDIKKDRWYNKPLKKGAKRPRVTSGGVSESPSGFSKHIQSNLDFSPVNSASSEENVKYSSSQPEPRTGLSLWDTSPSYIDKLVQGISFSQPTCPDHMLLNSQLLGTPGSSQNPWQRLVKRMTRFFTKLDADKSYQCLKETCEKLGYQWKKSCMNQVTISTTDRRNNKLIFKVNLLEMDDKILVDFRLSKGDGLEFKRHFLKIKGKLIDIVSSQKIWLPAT
Outline: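 Enzyme is N-terminal GST-Chk1 from baculovirus/insect cells, assayed with 1 μM biotin-GLYRSPSMPEN-amide in pH 7.5 Tris buffer, 4% DMSO and 10 mM MgCl2 for 50 min at room temperature. EDTA-stopped reactions were captured on NeutrAvidin. Phospho-peptide was detected by anti-phospho-Ser216-Cdc25c antibody with europium-labeled secondary and time-resolved fluorescence.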

| SMILES | IC50 [nM] |
| --- | --- |
| CCOCCc1[nH]nc2c1c(=O)n(CCCN)c1ccc(Cl)cc21 [Example 320, 5-(3-Amino-propyl)-8-chloro-3-(2-ethoxy-ethyl)-2,5-dihydro-pyrazolo[4,3-c]quinolin-4-one] | < 1000 |
| CCCOCCc1[nH]nc2c1c(=O)n(CCCN)c1ccc(Cl)cc21 [Example 321, 5-(3-Amino-propyl)-8-chloro-3-(2-propoxy-ethyl)-2,5-dihydro-pyrazolo[4,3-c]quinolin-4-one] | < 1000 |
| CCCCOCCc1[nH]nc2c1c(=O)n(CCCN)c1ccc(Cl)cc21 [Example 322, 5-(3-Amino-propyl)-3-(2-butoxy-ethyl)-8-chloro-2,5-dihydro-pyrazolo[4,3-c]quinolin-4-one] | < 1000 |
| NCCCn1c(=O)c2c(C3CCOC3)[nH]nc2c2cc(Cl)ccc21 (stereo not drawn) [Example 327, 5-(3-Amino-propyl)-8-chloro-3-(tetrahydro-furan-3-yl)-2,5-dihydro-pyrazolo[4,3-c]quinolin-4-one] | < 1000 |
| NCCCn1c(=O)c2c(CCO)[nH]nc2c2cc(C#CCN3CCCC3)ccc21 [Example 328, 5-(3-Amino-propyl)-3-(2-hydroxy-ethyl)-8-(3-pyrrolidin-1-yl-prop-1-ynyl)-2,5-dihydro-pyrazolo [4,3-c]quinolin-4-one] | < 1000 |
| CCc1[nH]nc2c1c(=O)n(CCCN)c1ccc(C#CCN3CCCC3)cc21 [Example 329, 5-(3-Amino-propyl)-3-ethyl-8-(3-pyrrolidin-1-yl-prop-1-ynyl)-2,5-dihydro-pyrazolo[4,3-c]quinolin-4-one] | < 1000 |
| CCc1[nH]nc2c1c(=O)n(CCCN)c1ccc(CCCN3CCCC3)cc21 [Example 330, 5-(3-Amino-propyl)-3-ethyl-8-(3-pyrrolidin-1-yl-propyl)-2,5-dihydro-pyrazolo[4,3-c]quinolin-4-one] | < 1000 |
| CCc1[nH]nc2c1c(=O)n(CCCNC)c1ccc(Cl)cc21 [Example 331, 8-Chloro-3-ethyl-5-(3-methylamino-propyl)-2,5-dihydro-pyrazolo[4,3-c]quinolin4-one] | < 1000 |
| Cc1[nH]nc2c1c(=O)n(CCCNC(=O)c1ccc(Cl)cc1)c1ccc(C#CCN3CCCC3)cc21 [Example 332, 4-Chloro-N-{3-[3-methyl-4-oxo-8-(3-pyrrolidin-1-yl-prop-1-ynyl)-2,4-dihydro-pyrazolo[4,3-c]quinolin-5-yl]-propyl}-benzamide] | < 1000 |
| Cc1[nH]nc2c1c(=O)n(CCCNC(=O)c1ccc(Cl)cc1)c1ccc(CCCN3CCCC3)cc21 [Example 333] | < 1000 |
| Cc1[nH]nc2c1c(=O)n(CCCN)c1cc(C(=O)NCCN(C)C)ccc21 [Example 335, 5-(3-Amino-propyl)-3-methyl-4-oxo-4,5-dihydro-2H-pyrazolo[4,3-c]quinoline-7-carboxylic acid (2-dimethylamino-ethyl)-amide] | < 1000 |
| Cc1[nH]nc2c1c(=O)n(CCCN)c1cc(C(=O)NCCN3CCCC3)ccc21 [Example 336, 5-(3-Amino-propyl)-3-methyl-4-oxo-4,5-dihydro-2H-pyrazolo[4,3-c]quinolin-7-carboxylic acid (2-pyrrolidin-1-yl-ethyl)-amide] | < 1000 |
| Cc1[nH]nc2c1c(=O)n(CCCN)c1cc(C(=O)NCCCN(C)C)ccc21 [Example 337] | < 1000 |
| Cc1[nH]nc2c1c(=O)n(CCCN)c1cc(C(=O)NCCCCN(C)C)ccc21 [Example 338] | < 1000 |
| Cc1[nH]nc2c1c(=O)n(CCCN)c1cc(I)ccc21 [Example 339, 5-(3-Aminopropyl)-7-iodo-3-methyl-2,5-dihydro-pyrazolo[4,3-c]quinolin4-one] | < 1000 |
| Cc1[nH]nc2c1c(=O)n(CCCN)c1cc(C#CCN3CCCC3)ccc21 [Example 340, 5-(3-Amino-propyl)-3-methyl-7-(3-pyrrolidin-1-yl-prop-1-ynyl)-2,5-dihydro-pyrazolo [4,3-c]quinolin-4-one] | < 1000 |
| Cc1[nH]nc2c1c(=O)n(CCCN)c1cc(CCCN3CCCC3)ccc21 [Example 341, 5-(3-Amino-propyl)-3-methyl-7-(3-pyrrolidin-1-yl-propyl)-2,5-dihydro-pyrazolo[4,3-c]quinolin-4-one] | < 1000 |
| Cc1[nH]nc2c1c(=O)n(C)c1c(C#CCN)cc(Cl)cc21 [Example 342, 6-(3-amino-prop-1-ynyl)-8-chloro-3,5-dimethyl-2,5-dihydro-pyrazolo[4,3-c]quinolin-4-one] | < 1000 |
| Cc1[nH]nc2c1c(=O)n(CCCN)c1ccc(C(=O)NCCN(C)C)cc21 [Example 352, 5-(3-Amino-propyl)-3-methyl-4-oxo-4,5-dihydro-2H-pyrazolo[4,3-c]quinoline-8-carboxylic acid (2-dimethylamino-ethyl)-amide] | < 1000 |
| Cc1[nH]nc2c1c(=O)n(CCCN)c1ccc(CCc3cccnc3)cc21 [Example 353, 5-(3-Amino-propyl)-3-methyl-8-(2-pyridin-3-yl-ethyl)-2,5-dihydro-pyrazolo[4,3-c]quinolin-4-one] | < 1000 |
| COCCc1[nH]nc2c1c(=O)n(CCCN)c1ccc(C)cc21 [Example 354, 5-(3-Amino-propyl)-3-(2-methoxy-ethyl)-8-methyl-2,5-dihydro-pyrazolo[4,3-c]quinolin-4-one] | < 1000 |
| NCCCn1c(=O)c2c(CCOCc3ccccc3)[nH]nc2c2cc(Cl)ccc21 [Example 362, 5-(3-Amino-propyl)-3-(2-benzyloxy-ethyl)-8-chloro-2,5-dihydro-pyrazolo[4,3-c]quinolin-4-one] | < 1000 |
| CCc1ccc2c(c1)c1n[nH]c(CCO)c1c(=O)n2CCCO [Example 363, 8-Ethyl-3-(2-hydroxy-ethyl)-5-(3-hydroxy-propyl)-2,5-dihydro-pyrazolo[4,3-c]quinolin-4-one] | < 1000 |
| CCCc1[nH]nc2c1c(=O)n(CCCN)c1ccc(Cl)cc21 [Example 364, 5-(3-Amino-propyl)-8-chloro-3-propyl-2,5-dihydro-pyrazolo[4,3-c]quinolin-4-one] | < 1000 |
| NCCCn1c(=O)c2c(C3CCCC3)[nH]nc2c2cc(Cl)ccc21 [Example 365, 5-(3-Amino-propyl)-8-chloro-3-cyclopentyl-2,5-dihydro-pyrazolo[4,3-c]quinolin4-one] | < 1000 |
| Cc1[nH]nc2c1c(=O)n(CCCN)c1cc(C(=O)NCCc3cccnc3)ccc21 [Example 366, 5-(3-Amino-propyl)-3-methyl-4-oxo-4,5-dihydro-2H-pyrazolo[4,3-c]quinoline-7-carboxylic acid (2-pyridin-3-yl-ethyl)-amide] | < 1000 |
| Cc1[nH]nc2c1c(=O)n(C)c1c(CCCO)cc(Cl)cc21 [Example 367, 8-Chloro-6-(3-hydroxy-propyl)-3,5-dimethyl-2,5-dihydro-pyrazolo[4,3-c]quinolin-4-one] | < 1000 |
| CCN(CC)CCC(=O)Nc1ccc2c(c1)c1n[nH]c(C)c1c(=O)n2CCCN [Example 368, N-[5-(3-Amino-propyl)-3-methyl-4-oxo-4,5-dihydro-2H-pyrazolo[4,3-c]quinolin-8-yl]-3-diethylamino-propionamide] | < 1000 |
| Cc1[nH]nc2c1c(=O)n(CCCN)c1ccc(NC(=O)CCN3CCCCC3)cc21 [Example 369, N-[5-(3-Amino-propyl)-3-methyl4-oxo-4,5-dihydro-2H-pyrazolo[4,3-c]quinolin-8-yl]-3-piperidin-1-yl-propionamide] | < 1000 |

target: T1, human Chk1 (GST-Chk1); experiment: Chk1 FlashPlate kinase assay; type: biochemical; conditions: 8.7 nM GST-Chk1, 1 uM ATP, 33P incorporation into peptide substrate
Method: Recombinant human Chk1 was expressed as a fusion protein with glutathione S-transferase at the amino-terminus (GST-Chk1) using standard baculovirus vectors and (Bac-to-Bac®) insect cell expression system purchased from GIBCO™ Invitrogen. Recombinant protein expressed in insect cells was purified using glutathione sepharose (Amersham Biotech) using standard procedures described by the manufacturer.
Chk1 FlashPlate® Kinase Assay:
Assays (25 μL) contained 8.7 nM GST-Chk1, 10 mM MES, 0.1 mM ethylene glycol-bis(β-aminoethylether)-N,N,N′,N′-tetracetic acid (EGTA, pH 8.0), 2 mM DTT, 0.05% Tween 20, 3 uM peptide substrate (Biotin-ILSRRPSYRKILND-free acid) (SEQ ID NO: 1), 1 uM ATP, 0.4 uCi ^33P-γ-ATP (NEN), 4% DMSO. Reactions were incubated for 30 minutes at room temperature, terminated with 50 μL of 50 mM EDTA and 90 μL were transferred to streptavidin-coated FlashPlates® (NEN) and incubated for 1 hour at room temperature. Plates were washed with phosphate buffered salaine containing 0.01% Tween-20 and 10 mM sodium pyrophosphate. Plates were dried, sealed with Topseal™ (NEN) and amount of ^33P incorporated into the peptide substate measure using a Packard Topcount® NXT™ scintillation counter with standard settings.

| SMILES | IC50 [nM] |
| --- | --- |
| Cc1n[nH]c2c1c(=O)n(CCNC(=O)OC(C)(C)C)c1ccccc21 [Example 1, [2-(3-Methyl-4-oxo-1,4-dihydro-pyrazolo[4,3-c]quinolin-5-yl)-ethyl]-carbamic acid tert-butyl ester] | 1000 to 20000 |
| Cc1n[nH]c2c1c(=O)n(Cc1cccnc1)c1ccccc21 [Example 2, 3-Methyl-5-pyridin-3-ylmethyl-1,5-dihydro-pyrazolo[4,3-c]quinolin-4-one] | 1000 to 20000 |
| CC(=O)OCCn1c(=O)c2c(C)n[nH]c2c2ccccc21 [Example 3, Acetic acid 2-(3-methyl-4-oxo-1,4-dihydro-pyrazolo[4,3-c]quinolin-5-yl)-ethyl ester] | 1000 to 20000 |
| Cc1n[nH]c2c1c(=O)n(CCNCc1ccccc1)c1ccccc21 [Example 4, 5-(2-Benzylamino-ethyl)-3-methyl-1,5-dihydro-pyrazolo[4,3-c]quinolin-4-one] | < 1000 |
